Test results: ChEMBL document CHEMBL1201862, “PubChem BioAssay data set” (2004)
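Results reflect a 48-hour exposure of cells in 96-well plates to compound at five concentrations. The concentration for 50% growth inhibition is given as GI50.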 Active and inactive are the calls of the source. Rule as the data show it: active = GI50 up to about 1.1 µM and inactive = higher.

Experiments:
Assay in all cases: growth of human tumour cells (NCI), 48 h
[1] = tested on: BT-549
[2] = tested on: CCRF-CEM
[3] = tested on: DU-145
[4] = tested on: EKVX
[5] = tested on: HCT-116
[6] = tested on: HOP-92
[7] = tested on: MCF7
[8] = tested on: MDA-N
[9] = tested on: MOLT-4
[10] = tested on: NCI-H460
[11] = tested on: NCI-H522
[12] = tested on: NCI/ADR-RES
[13] = tested on: OVCAR-5
[14] = tested on: SF-295
[15] = tested on: SK-OV-3
[16] = tested on: SR
[17] = tested on: UACC-257

Row | SMILES | GI50 [1] | GI50 [2] | GI50 [3] | GI50 [4] | GI50 [5] | GI50 [6] | GI50 [7] | GI50 [8] | GI50 [9] | GI50 [10] | GI50 [11] | GI50 [12] | GI50 [13] | GI50 [14] | GI50 [15] | GI50 [16] | GI50 [17]
1 | CCOC(=O)C1C(=O)CC(O)(c2ccccc2)C(C(=O)OCC)C1c1ccc(OC)cc1 (centres undefined) | 34.7 µM (inactive) | 18.2 µM (inactive) | 47.3 µM (inactive) | > 50.7 µM (inactive) | 4.94 µM (inactive) | 15.3 µM (inactive) | 27 µM (inactive) | 3.18 µM (inactive) | 17.5 µM (inactive) | 18.2 µM (inactive) | 5.69 µM (inactive) | 19.6 µM (inactive) | 50.6 µM (inactive) | 3.24 µM (inactive) | 15.8 µM (inactive) | 4.23 µM (inactive) | 58.3 µM (inactive)
2 | Cc1ccc(S(=O)(=O)N/N=C/C(=C/c2ccc(Cl)cc2)CC(/C=N/NS(=O)(=O)c2ccc(C)cc2)=C\c2ccc(Cl)cc2)cc1 | 6.15 µM (inactive) | 2.98 µM (inactive) | 25.8 µM (inactive) | 13 µM (inactive) | 4.6 µM (inactive) | 2.23 µM (inactive) | 2.86 µM (inactive) | 4.45 µM (inactive) | 2.55 µM (inactive) | 5.52 µM (inactive) | 4.03 µM (inactive) | 7.36 µM (inactive) | 15.3 µM (inactive) | 14 µM (inactive) | 44.4 µM (inactive) | 2.61 µM (inactive) | 11.4 µM (inactive)
3 | Cc1cc(S(=O)(=O)Nc2nc(N)nc(N(C)C)n2)c(SCC(=O)O)cc1Cl | > 10 µM (inactive) | > 10 µM (inactive) | > 10 µM (inactive) | > 10 µM (inactive) | > 10 µM (inactive) | > 10 µM (inactive) | > 10 µM (inactive) | > 10 µM (inactive) | > 10 µM (inactive) | > 10 µM (inactive) | > 10 µM (inactive) | > 10 µM (inactive) | > 10 µM (inactive) | > 10 µM (inactive) | > 10 µM (inactive) | > 10 µM (inactive) | > 10 µM (inactive)
4 | O=C1c2c(O)ccc(O)c2C(=O)c2c(NCCNC(=O)C(O)C(O)C(O)C(O)CO)ccc(NCCNC(=O)C(O)C(O)C(O)C(O)CO)c21 (centres undefined) | 0.121 µM (active) | 0.0316 µM (active) | < 0.01 µM (active) | 0.165 µM (active) | 0.0332 µM (active) | < 0.01 µM (active) | < 0.01 µM (active) | < 0.0494 µM (active) | < 0.01 µM (active) | < 0.01 µM (active) | < 0.02 µM (active) | 0.133 µM (active) | 0.192 µM (active) | < 0.01 µM (active) | < 0.0233 µM (active) | < 0.01 µM (active) | 1.11 µM (active)
5 | N#Cc1c(NC(=O)C(F)(F)F)sc2c3c(=O)c4ccccc4c(=O)c=3oc3ccccc3c12 | 19.6 µM (inactive) | 4.24 µM (inactive) | 15.3 µM (inactive) | 24.6 µM (inactive) | 11.9 µM (inactive) | 19.7 µM (inactive) | 20.2 µM (inactive) | 18.3 µM (inactive) | 11.7 µM (inactive) | 17.6 µM (inactive) | 7.89 µM (inactive) | 24.8 µM (inactive) | 30.7 µM (inactive) | 11.7 µM (inactive) | 29.4 µM (inactive) | 3.28 µM (inactive) | 16.7 µM (inactive)
6 | CC(C)(O)/C1=C/C=C/CCCCCCCCCC1 | > 100 µM (inactive) | 30.3 µM (inactive) | > 100 µM (inactive) | > 100 µM (inactive) | > 100 µM (inactive) | 81.3 µM (inactive) | > 100 µM (inactive) | > 100 µM (inactive) | 28.1 µM (inactive) | > 100 µM (inactive) | 95.9 µM (inactive) | > 100 µM (inactive) | > 100 µM (inactive) | > 100 µM (inactive) | > 100 µM (inactive) | 34 µM (inactive) | > 100 µM (inactive)
7 | COc1ccc(NC(=S)N/N=C/c2cccc(C)n2)cc1 | 10.7 µM (inactive) | 2.82 µM (inactive) | 5.56 µM (inactive) | 5.11 µM (inactive) | 3.33 µM (inactive) | 5.65 µM (inactive) | 3.59 µM (inactive) | 1.41 µM (inactive) | 3.07 µM (inactive) | 3.46 µM (inactive) | 0.203 µM (active) | 2.78 µM (inactive) | 31.5 µM (inactive) | 4.09 µM (inactive) | 4.61 µM (inactive) | 3.42 µM (inactive) | 2.53 µM (inactive)
8 | COc1ccc(-c2cc(O)c3cc(OC)c(OC)cc3n2)cc1OC | > 100 µM (inactive) | > 100 µM (inactive) | > 100 µM (inactive) | > 100 µM (inactive) | > 100 µM (inactive) | 64.4 µM (inactive) | > 100 µM (inactive) | > 100 µM (inactive) | > 100 µM (inactive) | > 100 µM (inactive) | > 100 µM (inactive) | > 100 µM (inactive) | > 100 µM (inactive) | > 100 µM (inactive) | > 100 µM (inactive) | > 100 µM (inactive) | > 100 µM (inactive)
9 | CSc1nc(C)c(CCOC(C)=O)c(Cl)n1 | > 100 µM (inactive) | > 100 µM (inactive) | > 100 µM (inactive) | > 100 µM (inactive) | > 100 µM (inactive) | > 100 µM (inactive) | > 100 µM (inactive) | > 100 µM (inactive) | > 100 µM (inactive) | > 100 µM (inactive) | > 100 µM (inactive) | > 100 µM (inactive) | > 100 µM (inactive) | > 100 µM (inactive) | > 100 µM (inactive) | > 100 µM (inactive) | > 100 µM (inactive)
10 | COc1cccc(C2c3cc4c(cc3OC(C)(O)C2C)OCO4)c1O (centres undefined) | 9.71 µM (inactive) | 4.45 µM (inactive) | 4.48 µM (inactive) | 13.6 µM (inactive) | 3.64 µM (inactive) | 6 µM (inactive) | 4.25 µM (inactive) | 1.48 µM (inactive) | 5.25 µM (inactive) | 3.81 µM (inactive) | 2.27 µM (inactive) | 2.13 µM (inactive) | 8.09 µM (inactive) | 2.96 µM (inactive) | 3.57 µM (inactive) | 2.18 µM (inactive) | 8.15 µM (inactive)
11 | Cc1nc2ccccc2n1Cc1ccc(NC(=S)Nc2ccccc2)cc1 | 61.1 µM (inactive) | 36.8 µM (inactive) | 73.8 µM (inactive) | 21.1 µM (inactive) | 31.6 µM (inactive) | 61.9 µM (inactive) | 27.4 µM (inactive) | 31 µM (inactive) | 23.3 µM (inactive) | 92.3 µM (inactive) | 21.9 µM (inactive) | 72.3 µM (inactive) | 37.1 µM (inactive) | 34.3 µM (inactive) | > 100 µM (inactive) | 20.2 µM (inactive) | 32.7 µM (inactive)
12 | CC(C)(C)OC(=O)CN1CCN(CC(=O)N2CCN(C(=O)OCc3ccccc3)CC2)CCN(CC(=O)OC(C)(C)C)CCN(CC(=O)N2CCN(C(=O)OCc3ccccc3)CC2)CC1 | 3.94 µM (inactive) | 1.41 µM (inactive) | 6.95 µM (inactive) | 10.5 µM (inactive) | 3.11 µM (inactive) | 2.6 µM (inactive) | 2.35 µM (inactive) | 2.18 µM (inactive) | 1.98 µM (inactive) | 1.35 µM (inactive) | 0.785 µM (active) | 14.3 µM (inactive) | 13.1 µM (inactive) | 3.35 µM (inactive) | 3.47 µM (inactive) | 0.407 µM (active) | 2.54 µM (inactive)
